Laboratory results from patent publication US7208572B2, “Leptin-related peptides” (Albany Medical College, priority 1998, dated 2007).

How the values were obtained:
OB-Ra = target: T1, OB-Ra (Mus musculus, UniProt P48356); experiment: Inhibition of AP-OB fusion protein binding by COS-7 cells transfected with OB receptor; conditions: 1 nM human AP-OB, peptide up to 300 μM
T1 construct: expressed in transfected cells; host or cells: COS-7
T1 sequence (P48356 22-894 isoform P48356-2 limits assumed): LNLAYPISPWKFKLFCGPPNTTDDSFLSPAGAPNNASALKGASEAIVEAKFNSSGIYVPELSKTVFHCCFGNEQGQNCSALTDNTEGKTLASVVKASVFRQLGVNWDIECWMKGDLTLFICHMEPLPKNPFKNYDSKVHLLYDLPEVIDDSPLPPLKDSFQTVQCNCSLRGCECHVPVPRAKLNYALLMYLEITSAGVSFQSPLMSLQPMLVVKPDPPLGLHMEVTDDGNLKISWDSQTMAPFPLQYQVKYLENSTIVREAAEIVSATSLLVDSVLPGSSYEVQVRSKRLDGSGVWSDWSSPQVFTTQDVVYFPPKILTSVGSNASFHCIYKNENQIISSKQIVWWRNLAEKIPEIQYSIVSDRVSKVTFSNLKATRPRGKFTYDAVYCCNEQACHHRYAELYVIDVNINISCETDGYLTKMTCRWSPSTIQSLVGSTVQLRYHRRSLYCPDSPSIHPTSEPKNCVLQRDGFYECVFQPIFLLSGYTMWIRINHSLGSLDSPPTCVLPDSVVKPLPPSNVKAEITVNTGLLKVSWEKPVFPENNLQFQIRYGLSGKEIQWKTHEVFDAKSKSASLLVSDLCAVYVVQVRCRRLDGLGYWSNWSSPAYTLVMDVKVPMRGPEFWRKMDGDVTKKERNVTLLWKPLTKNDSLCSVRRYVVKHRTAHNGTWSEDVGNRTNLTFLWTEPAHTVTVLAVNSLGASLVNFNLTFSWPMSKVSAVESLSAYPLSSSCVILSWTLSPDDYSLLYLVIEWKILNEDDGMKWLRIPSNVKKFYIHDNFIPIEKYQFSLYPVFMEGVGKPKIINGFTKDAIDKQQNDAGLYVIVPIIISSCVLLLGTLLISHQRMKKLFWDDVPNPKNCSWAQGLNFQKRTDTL
Description: Initial experiments to determine the mechanism of action of LEP(116–130) utilized two highly sensitive in vitro bioassays routinely used to assess leptin binding and receptor activation (see e.g., White, et al., 1997. Proc. Natl. Acad. Sci. U.S.A. 94: 10657–10662). An alkaline phosphatase (“AP”)-leptin (“OB”) fusion protein (“AP-OB”) was used to measure inhibition of leptin binding in the absence or presence of recombinant mouse leptin (positive control) or peptide, by COS-7 cells transfected with the long (signaling) form of the mouse OB receptor (“OB-RL”). Signal transduction assays were done in GT1–7 cells cotransfected with AP reporter and OB-RL constructs. Secreted alkaline phosphatase (“SEAP”) activity in response to stimulation with mouse leptin or peptide was measured by chemiluminescence.
Two days after transfection, COS-7 cells were incubated with 1 nm human AP-OB fusion protein and bound AP activity was determined by chemiluminescence using the Great EscApe alkaline phosphatase detection kit as described by the manufacturer (CLON-TECH).
COS-7 cells were transfected with expression vector for OB-Ra. Two days after transfection, the cells were incubated with 1 nM human AB-OB fusion protein in the absence or presence of 30 nM mouse leptin, 300 μM LEP(116–130) or LEP(146–160). Bound AP activity was determined as has been described. See., e.g., Kamohara et al., 1997 Nature 389: 374–377.

[1] = 28-day ip study of body weight and food intake in female C57BL/6J ob/ob mice; format: in vivo, mouse; conditions: 1 mg per day ip, 28 days
Description: In order to examine this possibility, six overlapping peptide amides, which corresponded to amino acid residues 106 to 167 of mouse leptin, were synthesized and their effects on body weight and food intake in female C57BL/6J ob/ob mice were subsequently assessed.

[2] = db/db mice, 1 mg/day ip
Description: Peptide administration: LEP(116–130) and LEP(146–160) peptide amides were dissolved in sterile phosphate buffered saline (PBS, pH 7.2) and administered daily for 7 days between 1500 and 1600 h in a single 1 mg/0.2 ml ip injection. Control mice received 0.2 ml PBS (ip) only.
Feeding and weighing schedule: On day one of the study, and on each day thereafter, 200 g of pelleted rodent diet (Prolab Rat, Mouse, Hamster 3000, St.Louis Mo.; 22% crude protein, 5% crude fat, 5% fiber, 6% ash, 2.5% additional minerals) was added to the hopper on each side of the cages between 0900 and 1100 h. Food remaining after 24 h was weighed to the nearest 0.1 g, and the average amount of food consumed per mouse was calculated (mean±SEM, n=6). The mice were allowed water ad libitum throughout the study, and were weighed once daily between 0900 and 1100 h.
Each value represents the mean±SEM change in body weight or food intake for a group of six mice.

## A L S R L Q G S L Q D I L Q Q (ALSRLQGSLQDILQQ) [LEP(146–160)]
OB-Ra
  Inhibition of AP-OB fusion protein binding: neither LEP(116–130) nor LEP(146–160), at 300 μM, were able to inhibit AP-OB binding
OB-Ra; listed as LEP(145–160)
  Inhibition of AP-OB fusion protein binding: unable to inhibit AP-OB binding
[1]
  Weight gain and food intake vs vehicle: continued to consume food and gain weight at a rate comparable to vehicle-injected control mice
[2]
  Weight after 7 days: 36.2 ± 1.4 g
[2]; 7 days
  Cumulative food intake: 53.5 ± 0.3 gm/mouse
  Effect on body weight gain and food intake: had no effect on either body weight
  Percent increase (body weight): +18.3%
  Weight increase: +5.6 g
